Entries after “also recorded” stand apart in the source; their conditions may differ.
What was measured:
LPS-induced serum TNF-α = assay: sub-lethal LPS-induced endotoxemia assay; type: in vivo, adult female CD-1 mice; conditions: for % Inhibition of LPS-induced serum TNF-α, Mean: oral route, six mice
Text: In this assay, mice are given a non-specific pro-inflammatory challenge using bacterial endotoxin (LPS), and the extent of the systemic inflammatory response (measured by serum levels of the central pro-inflammatory cytokine TNF-α, which is essentially absent from the blood under normal conditions, but is rapidly elevated in response to a wide range of inflammatory stimuli). We have selected this model, even though it is not, itself, a particularly close model of any human inflammatory disease condition, because TNF-α is known to be important in very many diseases (including rheumatoid arthritis, autoimmune disorders, Crohn's Disease, atherosclerosis, asthma and many more). Consequently, agents which suppress TNF-α production are already used clinically (e.g. etanercept (Enbrel™) and other anti-TNF-α antibody products, such as infliximab (Remicade™) and adalimumab (Humira™)) to treat a wide range of such diseases.
Mice (adult female CD-1 mice in groups of 6) were pretreated with various doses of each compound, either by the subcutaneous route 30 mins prior to LPS challenge, or by the oral route (via gavage) 60 mins prior to LPS. The mice were then challenged with an intraperitoneal injection of 750 μg of bacterial LPS and sacrificed 2 hours later. Serum was prepared from a terminal bleed by cardiac puncture, and the concentration of TNF-α determined by ELISA (R&D Systems). In each experiment, a group of 6 mice receive no LPS to act as a negative control, and a second group receive only LPS (with no candidate inhibitor). The level of TNF-α in serum from these animals which received LPS without drug pre-treatment is arbitrarily set to 100% (and is typically of the order of 6,000 pg/ml, compared with levels of <10 pg/ml among the negative control group, which received no LPS).

[1] = test system: serum growth hormone (GH); assay: ovalbumin-sensitised rat model of asthma: serum growth hormone ELISA (side-effect measure); type: in vivo, Brown Norway rats
Procedure: (§1) Briefly, adult Brown Norway rats (200-300 g body weight; n=10 per group) are sensitised by a single interperitoneal injection of 0.1 mg Ovalbumin on day 0. Each rat then receives an intratracheal challenge with a solution of 1% ovalbumin (w/v) on day 8, and with 2% ovalbumin (w/v) on days 15, 18 and 21. The animals are then sacrificed 3 hours after the final challenge on day 21. Note that ovalbumin (Sigma; purest available grade) can be made endotoxin-free by passage over EndoTrap Red columns (purchased from Cambrex; used in accordance with the manufacturer's instructions), and the endotoxin level confirmed as <5 EU/mg protein using the LAL assay (QCL-1000; Cambrex; performed in accordance with the manufacturer's instructions; 1 mg of standard endotoxin contains ˜900,000 EU/mg). This ensures that the lung inflammation response results from the allergic response to the ovalbumin protein, rather than from unintended LPS stimulation which occurs even with the highest purity grade commercial ovalbumin preparations, and therefore ensures the model more closely represents the underlying molecular pathology of human asthma.
One group of mice (acting as a baseline control) receives no ovalbumin challenges, but are otherwise treated identically. A second group (positive control) receives the challenges but no drug treatment. Further groups are treated identically, but receive daily dosage with: (a) (S)-3-(2′,2′-dimethylpropanoylamino)-tetrahydropyridin-2-one (B′) at a dose of either 0.3 mg/kg or 0.03 mg/kg via oral gavage from day 8 until day 21, with dosage being given 1 hr prior to any subsequent challenge with ovalbumin made on the same day. […]
Serum is also prepared from a terminal bleed, and levels of GH are measured using a commercially available ELISA (Diagnostic Systems Laboratories, Inc; DSLabs) in accordance with the manufacturer's instructions.

[2] = test system: Th1/Th2 polarisation axis; assay: ovalbumin-sensitised rat model of asthma: splenocyte Th1/Th2 ratio by flow cytometry; type: in vivo, Brown Norway rats; conditions: low dose B′ (0.03 mg/kg)
Procedure: as §1, with “asthma. […]” for “asthma.”
The spleen is also removed from each mouse and placed in RPMI+10% FCS+antibiotics. […] The resulting cell suspensions are then centrifuged (328 g; 5 mins) and washed in RPMI+10% FCS+antibiotics, before being resuspended in fresh media and counted using a haemocytometer. […]

[3] = test system: leukocyte recruitment into the lung; assay: ovalbumin-sensitised rat model of asthma: total BAL leukocyte count; type: in vivo, Brown Norway rats; conditions: low dose alone: 0.03 mg/kg B′ or 0.01 mg/kg DMX, daily oral
Procedure: as §1, with “This ensures that the lung inflammation response results from the allergic response to the ovalbumin protein, rather than from unintended LPS stimulation which occurs even with the highest purity grade commercial ovalbumin preparations, and therefore ensures the model more closely represents the underlying molecular pathology of human asthma.” left out
On sacrifice, total lung leukocyate recruitment is assessed by performing a broncheoalveolar lavage (BAL) using 4 lots of 3 ml sterile phosphate-buffered saline introduced through a tracheal cannula. For each animal, the BAL washes are combined, and the total cell population counted (using a haemocytometer).

## (S)-3-(adamantylamino)-caprolactam [B]
LPS-induced serum TNF-α; Experiment 1, B 3 × 10^−6 mg
  % Inhibition of LPS-induced serum TNF-α, Mean: 34%
LPS-induced serum TNF-α; Experiment 1
  % Inhibition of LPS-induced serum TNF-α, Mean: 15%
LPS-induced serum TNF-α; Experiment 2, B 3 × 10^−6 mg
  % Inhibition of LPS-induced serum TNF-α, Mean: 54%
LPS-induced serum TNF-α; Experiment 2
  % Inhibition of LPS-induced serum TNF-α, Mean: 34%
LPS-induced serum TNF-α; administered separately: 0.3 μg per mouse DMX or 0.1 μg/mouse B
  anti-inflammatory effect on the TNF-α response: minor anti-inflammatory effect which was not statistically significant in every experiment

## C[C@@H]1C[C@H]2[C@@H]3CCC4=CC(=O)C=C[C@]4(C)[C@@]3(F)[C@@H](O)C[C@]2(C)[C@@]1(O)C(=O)CO [DMX, Dexamethasone, reference compound]
[1]; high dose DMX (1 mg/kg)
  suppression of serum GH levels: ≤ 80%
[1]; low dose DMX (0.01 mg/kg)
  suppression of serum GH levels: approximately 10%
LPS-induced serum TNF-α; Experiment 1, DMX 3 × 10^−7 mg
  % Inhibition of LPS-induced serum TNF-α, Mean: 19%
LPS-induced serum TNF-α; Experiment 2, DMX 3 × 10^−7 mg
  % Inhibition of LPS-induced serum TNF-α, Mean: 37%

## CC(C)(C)C(=O)N[C@H]1CCCNC1=O [B′, (S)-3-(2′,2′-dimethylpropanoylamino)-tetrahydropyridin-2-one]
[2]
  re-balancing of the Th1/Th2 axis: statistically significant Th1 shift
[1]; B′ alone
  significant suppression of serum GH levels: not
[3]
  effect on leukocyte accumulation in the lung: ineffective; also recorded: neither compound, when administered alone, has a statistically significant effect

Reference: patent US20110150873A1, “ANTI-INFLAMMATORY COMPOSITIONS AND COMBINATIONS” (CAMBRIDGE ENTERPRISE LIMITED, priority 2007, published 2011)
